Reference: US7745001B2, “Synthesis of nanoassemblies containing luminescent quantum dots and magnetic nanoparticles” (University of New Orleans Research and Technology …, priority 2004, dated 2010)

Molecular target: Concanavaline A (Con A) (Canavalia ensiformis, UniProt P02866)
Experiment: dextran-Con A binding (dissociation constant)
Excerpt: The glyconanospheres of the present invention can contain dextran molecules (or could contain other polysaccharides) on their surface that interact strongly with carbohydrate binding proteins. These glyconanospheres can be used for real-time monitoring of protein carbohydrate interactions. The inventors in their studies of the present invention focused on lectins, which are sugar binding proteins. In particular the inventors worked with Concanavaline A (Con A) which binds glycosylic residues in carbohydrates with high affinity (the dissociation constant of dextran-Con A was found in studies of the present inventors to be about 1 nanomolar).

Substance: dextran
- Kd: ~1 nM
